The text on data set [1]:
For the case of abietic acid, calcium abietate (Dertocal), polymerised calcium abietate (MERIGRAL™) and the phenolic modified resins (RESENOL™ and GRANOLITE™), insoluble residues were removed by filtration and the numbers given in Table 1 relate to the soluble fraction after filtration.

Data set [2] is described as follows: Well-mixed bottle tests: dilution of treatment fluid with brine or oil. The following applies: T=25° C. In kind it is physicochemical.
Excerpt: In this case, the DPM solvent is 100% miscible with oil or brine.
Note that the oil and the treatment fluid are miscible.
Data set [3] can be described thus: Brine follow-up treatments, series of 3 treatments in 2-ft sand pack. The following applies: 10 wt % in DPM. On the procedure:
The selective response to injections of treatment fluid and brine was carried out in porous media.
An experiment was performed in a 2-ft sand pack at ambient temperature and Sw=1. The experiment consisted in a series of 3 pack treatments (using a process of treatment fluid injection followed by brine injection), followed by brine backflow between each of the three treatments. The fluid used was 10 wt % resinate (calcium abietate, Dertocal) dissolved in DPM.
The volume of the treated zone is ⅔ of the pore volume (⅓ treatment fluid+⅓ brine). As shown, permeability reduced with each treatment.

A short description of data set [4]: Abietate in pure diesel, Berea sandstone water and oil zones. Conditions: 30 wt % dissolved in diesel, 50° C. The protocol: The plot of FIG. 9 deals with the performance in water zones at 50° C. (Berea sandstone, k 100-150 mD; brine: 5 wt % NH4Cl in DI water) of the oil-based system (no miscibility with water/brine). The system contained 30 wt % calcium abietate dissolved in diesel.
The damage in the water zone was a function of the oil saturation prior to treatment. […] Since the brine and diesel-based treatment fluid are immiscible, it is unlikely that the precipitation of waxy solids accounts for the damage observed. Whilst it is possible that some minor precipitation may occur at interfaces, we suspect a viscous oil or viscous interface effect may be playing a role in reducing kbrine after backflow to steady-state.

The procedure of data set [5]: Sandpack experiments were performed to evaluate the recovery of oil permeability after brine-induced precipitation.
The permeability ratio K(oil)/initial K(brine) is shown on the vertical y axis and this is plotted against the brine saturation (vol %) in the core.
The dark curve plotted with diamonds relates to the experiment wherein the starting point is a 10-ft pack saturated with brine (Sw=1, brine permeability Kw=960 mD). Oil is then flushed through it until the steady state is reached. During this operation, the water saturation in the pack decreases as water is mobilized and removed by the flow of oil. The oil permeability (Ko) is determined regularly during the process. The ratio K(oil)/initial K(brine) is then calculated and plotted against the water saturation. The oil permeability at steady state is 1300 mD, which gives Ko/Kwi=1.35 at Sw=29.5%.
The lighter curve plotted with triangles relates to the experiment wherein the 10-ft pack is saturated with brine (Sw=1, brine permeability Kw=800 mD). Half of it is then treated with 5 wt % resinate (calcium abietate, Dertocal) dissolved in solvent (DPM). Brine is then backflowed through the pack until the steady state is reached. […] Then, oil is flushed through the pack until the steady state is reached (Ko=1061 mD). Again, the ratio K(oil)/initial K(brine) is calculated and plotted against the water saturation. […]
This is another data set of the same source.

Data set [6] is described as follows: Berea sandstone permeability experiments. Conditions: 10 wt % in DPM, brine postflush, 20 psi/ft. The protocol:
An experiment was performed in a 1 foot 250 mD Berea sandstone core at Sw=1, using a process of treatment fluid injection followed by follow-up brine injection.
Treatment fluid used: 10 wt % resinate (Calcium abietate, Dertocal) in solvent (DPM). The volume of the treated zone was ⅔ of the pore volume (⅓ treatment fluid+⅓ brine).
Brine permeability before treatment: 250 mD.
Brine permeability in the treated zone was reduced by 70%. The biggest damage (precipitation) appeared near the wellbore (region 1) where the reduction was 73%.
The biggest damage appeared near the wellbore (regions 1) where the reduction was 60%.

The nature of data set [7]: Selective response in porous media, two feet long sandpacks (water zone / oil zone). Conditions: for Brine permeability reduction corrected for treatment depth: water zone. The protocol:
Candidate solvent-based treatment fluids were evaluated in porous media. […] Duplicate two feet long sandpacks were prepared using a specific blend of sand and silica flour.
Experiments were used to evaluate a treatment fluid containing 5 wt % calcium abietate pre-dissolved in a DPM/brine mixture.

Several values for one entry are separate records, joined by “and”; a condition that tells them apart may be missing. Equal entries are not always repeated. A value given as a limit tells only on which side of the number the result lay.

In the case of `CC(C)C1=CC2=CCC3[C@](C)(CCC[C@@]3(C)C(=O)O)C2CC1` (stereo partly drawn) [Abietic Acid, Abietic acid], in data set [1], the “Solubility, Brine wt %” value was 0.01 wt % and the “Solubility, Solvent wt % (solvent chemistry)” value is listed as “≧30 (DPM^(3)), ≧30 (EB^(4)) wt %”. Further, the “Behaviour on dilution with brine: [brine] at precipitation” value (from here on “Behaviour on dilution with brine”) in data set [2] (5 wt % dissolved in pure DPM) is “[brine] = 33 vol %”.
In the case of `CC(C)C1=CC2=CCC3C(C)(C(=O)O)CCCC3(C)C2CC1` (stereo not drawn) [Ca Abietate, Calcium abietate], the “% Reduction (cumulative)” value is on record as 51% in data set [3] (after treatment I), 72% in data set [3] (after treatment II) and 88% in data set [3] (after treatment III). Also, the “% retained koil in oil zones” value in data set [4] is listed as 85-100%. Further, the “kbrine reduction in water zones” value in data set [4] (So(pre-treatment) range 0-25%, brine 5 wt % NH4Cl) was at least 70%. Moreover, the “Solubility, Brine wt %” value in data set [1] was determined as 0.01 wt %. This compound came in with a Brine permeability reduction in data set [5] (5 wt % in DPM, half of 10-ft pack treated, brine backflow to steady state) of 25%. In addition, in data set [5] (not told), the “Oil permeability Ko at steady state after oil flush” value amounted to 1061 mD. For the same compound, in data set [2] (5 wt % dissolved in pure DPM), the “Behaviour on dilution with brine” value was “[brine] = 23 vol %”. Also, the “Brine permeability reduction in the treated zone” value in data set [6] (T=60° C.) is reported as 33.5%; in data set [6] (ambient temperature), 70%. In addition, the “Brine permeability reduction near the wellbore (regions 1)” value in data set [6] (T=60° C.) turned out to be 60%. The “Brine permeability reduction near the wellbore (region 1)” value in data set [6] (ambient temperature) is listed as 73%. Further, the “Brine permeability reduction corrected for treatment depth” value is 54% in data set [7] (5 wt % pre-dissolved in DPM/brine mixture); 65% and 69% in data set [7] (20 wt % in DPM, 20 psi/ft, 25° C.). In addition, the “Effect on permeability to oil” value in data set [7] (not told) is on record as “no effect on permeability to oil”.
With `CC12CCC(CC1=O)C2(C)C` (stereo not drawn) [Camphor, camphor], in data set [1], the “Solubility, Brine wt %” value is listed as “very”; the “Solubility, Oil wt %” value was “≧50.0^(7) wt %”; the “Solubility, Solvent wt % (solvent chemistry)” value is “≧50.0 (DPM^(3)) wt %”.
For “calcium neo-decanoate [Ca neo-Decanoate (dry^B)]”, the “Behaviour on dilution with brine” value in data set [2] (10 wt % dissolved in pure DPM) was “[brine] = 67 vol %”.
Still for that read-out and setting: to “calcium neo-tridecanoate [Ca neo-Tridecanoate (dry)]” belongs “[brine] = 70 vol %”.

For the origin of these results see patent US7533723B2, “Well bore treatment fluid” (Schlumberger Technology Corporation, priority 2003, dated 2009).
